Assay: Example 2: broiler performance (body weight gain, feed intake, FCR), PQQ in diet, 0 to 42 days
Type: in vivo, Broiler Chicken (Cobb 500)
Source text: Study Animals: • Animal: Broiler Chicken • Breed/Strain: Cobb 500 • Description: Day-of-hatch male chicks, sexed at hatchery • Sex: Male Total number of treatments: 4 Total number of replicates per treatment: 12 Total number of chicks per replicate: […] Initial age: day-of-hatch: 0 days-of-age Final age: 6 weeks: 42 days-of-age. Feed will be changed based on the days of each phase. • Starter feed will be weighed out and fed from day 0 to 7. • Grower feed will be weighed, issued and fed from day 8 until 21. • Finisher feed will be weighed, issued and fed from day 22 until 35. • Withdraw feed will be weighed, issued and fed from day 36 until 42. Performance: Feed consumption and pen weights are determined on days 0, 21, 35 and 42 to calculate average body weight (BW), body weight gain (BWG) and feed conversion ratio (FCR). Final bird weights: At the end of the grow-out period (Day 42), all birds are weighed, as well as any and all remaining feed. Randomized Complete Block Design with 4 treatments×12 replicates/treatment (40 birds/pen), randomized within blocks across the barn to minimize differences in environmental condition. The pen is the experimental unit. Dietary Treatments • Control (NC, negative control without PQQ) • 0.2 ppm PQQ • 0.5 ppm PQQ • 1 ppm PQQ The results are presented in tables 5 to 13 below for broilers fed diets from 0 to 42 days (d) of age. The values given are the mean and the P value.

## O=C(O)c1cc(C(=O)O)c2c(n1)C(=O)C(=O)c1cc(C(=O)O)[nH]c1-2 [PQQ, pyrroloquinoline quinone]
0.2 ppm PQQ (T2), 1 t1o 42 d
  Cumulative feed intake of broilers: 5365 g
0.2 ppm PQQ (T2), 1 to1 21 d
  Cumulative feed intake of broilers: 835 g
0.2 ppm PQQ (T2), 1 to 7 d
  feed intake of broilers: 158 g
0.2 ppm PQQ (T2), 1 to 21 d
  cumulative body weight gain of broilers: 624 g
  cumulative feed conversion ratio of broilers: 1.355
0.2 ppm PQQ (T2), 1 to 35 d
  cumulative body weight gain of broilers: 2125 g
  cumulative feed conversion ratio of broilers: 1.494
0.2 ppm PQQ (T2), 1 to 42 d
  cumulative body weight gain of broilers: 3204 g
  cumulative feed conversion ratio of broilers: 1.674
0.2 ppm PQQ (T2), 8 to 21 d
  feed intake of broilers: 677 g
0.2 ppm PQQ (T2), 11 to 35 d
  Cumulative feed intake of broilers: 3173 g
0.2 ppm PQQ (T2), 22 to 35 d
  feed intake of broilers: 2346 g
0.2 ppm PQQ (T2), 36 to 42 d
  feed intake of broilers: 2218 g
0.5 ppm PQQ (T3), 1 t1o 42 d
  Cumulative feed intake of broilers: 5316 g
0.5 ppm PQQ (T3), 1 to1 21 d
  Cumulative feed intake of broilers: 853 g
0.5 ppm PQQ (T3), 1 to 7 d
  feed intake of broilers: 156 g
0.5 ppm PQQ (T3), 1 to 21 d
  cumulative body weight gain of broilers: 608 g
  cumulative feed conversion ratio of broilers: 1.402
0.5 ppm PQQ (T3), 1 to 35 d
  cumulative body weight gain of broilers: 2123 g
  cumulative feed conversion ratio of broilers: 1.526
0.5 ppm PQQ (T3), 1 to 42 d
  cumulative body weight gain of broilers: 3166 g
  cumulative feed conversion ratio of broilers: 1.675
0.5 ppm PQQ (T3), 8 to 21 d
  feed intake of broilers: 699 g
0.5 ppm PQQ (T3), 11 to 35 d
  Cumulative feed intake of broilers: 3236 g
0.5 ppm PQQ (T3), 22 to 35 d
  feed intake of broilers: 2390 g
0.5 ppm PQQ (T3), 36 to 42 d
  feed intake of broilers: 2105 g
1.0 ppm PQQ (T4), 1 t1o 42 d
  Cumulative feed intake of broilers: 5449 g
1.0 ppm PQQ (T4), 1 to1 21 d
  Cumulative feed intake of broilers: 905 g
1.0 ppm PQQ (T4), 1 to 7 d
  feed intake of broilers: 159 g
1.0 ppm PQQ (T4), 1 to 21 d
  cumulative body weight gain of broilers: 630 g
  cumulative feed conversion ratio of broilers: 1.429
1.0 ppm PQQ (T4), 1 to 35 d
  cumulative body weight gain of broilers: 2178 g
  cumulative feed conversion ratio of broilers: 1.540
1.0 ppm PQQ (T4), 1 to 42 d
  cumulative body weight gain of broilers: 3188 g
  cumulative feed conversion ratio of broilers: 1.708
1.0 ppm PQQ (T4), 8 to 21 d
  feed intake of broilers: 747 g
1.0 ppm PQQ (T4), 11 to 35 d
  Cumulative feed intake of broilers: 3357 g
1.0 ppm PQQ (T4), 22 to 35 d
  feed intake of broilers: 2459 g
1.0 ppm PQQ (T4), 36 to 42 d
  feed intake of broilers: 2113 g
Each concentration (0.2, 0.5, 1.0 ppm)
  influence on the body weight: positive influence

— patent US20210161174A1, “FEED ADDITIVE FOR FARMED ANIMALS” (ADISSEO FRANCE S.A.S., priority 2018, published 2021)
